US20050250944A1, “Synthesis and uses of synephrine derivatives” (priority 2004, published 2005)
Entries after “also recorded” stand apart in the source; their conditions may differ. Structures can show the parent of a compound that is named as a salt.

Experiments:
[1] = long use in China; Zhao et al. 1989; cited from earlier work
adipose tissue = conditions: Pilkington, Cernohorsky, Muhlbachova, Wenkeova et al.; cited from earlier work
[2] = literature; cited from earlier work
β-adrenergic = conditions: literature; cited from earlier work
β3-adrenoceptors = target: T1, β3-adrenoceptors (Rattus norvegicus, UniProt P26255); conditions: Carpene et al. 1999; cited from earlier work
T1 construct: comparative studies in mammalian fat cells; host or cells: mammalian fat cells (adipocytes), endogenous receptor

rat adipocyte = conditions: Carpene et al.; cited from earlier work
human fat cells = conditions: Carpene et al.; cited from earlier work
human adipocytes = assay: Test of lipolytic capacity on human adipocytes (glycerol release); assay type: cell-based; conditions: for maximal lipolytic response elicited: glycerol released by human abdominal subcutaneous adipocytes, 90 min at 37° C., basal 0%, isoproterenol 100%
Source text: The lipolytic capacity of the Synephrine Derivatives can be tested in human adipocytes. For the sake of convenience, for Examples 21 to 24, the known 2-isopropylamino-1-(4-hydroxyphenyl)-ethanol hydrochloride (Formula shown in Example 12, above, also known as isopropylnorsynephrine hydrochloride) is used here as a non-limiting example of a Synephrine Derivative.
In this example, the lipolytic property of isopropylnorsynephrine hydrochloride was compared to that of synephrine hydrochloride (Formula shown in Example 15). The index of lipolytic activity chosen was the glycerol released by freshly originated human adipocytes with reference to basal (0%, without any drug) and maximal (100%) responses to a standard lipolytic reference: isoproterenol.
Adipocytes were isolated from samples of subcutaneous abdominal adipose depot freshly obtained during abdominal lipectomy. The surgical interventions were conducted under general anaesthesia on ten healthy women undergoing abdominal plastic surgery. The human samples were transferred in less than 15 min to the laboratory for adipocyte preparation. The human abdominal subcutaneous adipocytes were obtained by collagenase digestion of the fresh samples of adipose tissue. The isolation, washing, handling and distribution of fat cells were carried out according to the technique described in Carpene, “Assays of Adrenergic Receptors: Including Lipolysis and Binding Measurements”, from Methods in Molecular Biology, supra. Briefly, extemporaneous dilutions of the tested drugs were added in 4 μl in plastic vials which received 400 μl of freshly prepared adipocyte suspension. The given concentrations were the final concentrations in which the cells were incubated for 90 min at 37° C. under gentle shaking. At the end of the experiment, the glycerol released by the cells was determined on an aliquot as described in Carpene, Id.
The mean lipid content in the incubation vials was 17.6±1.0 mg/400 μl, which corresponded to approximately 500,000 cells/vial.

[3] = ratio to synephrine hydrochloride

T1 sequence (P26255 whole entry): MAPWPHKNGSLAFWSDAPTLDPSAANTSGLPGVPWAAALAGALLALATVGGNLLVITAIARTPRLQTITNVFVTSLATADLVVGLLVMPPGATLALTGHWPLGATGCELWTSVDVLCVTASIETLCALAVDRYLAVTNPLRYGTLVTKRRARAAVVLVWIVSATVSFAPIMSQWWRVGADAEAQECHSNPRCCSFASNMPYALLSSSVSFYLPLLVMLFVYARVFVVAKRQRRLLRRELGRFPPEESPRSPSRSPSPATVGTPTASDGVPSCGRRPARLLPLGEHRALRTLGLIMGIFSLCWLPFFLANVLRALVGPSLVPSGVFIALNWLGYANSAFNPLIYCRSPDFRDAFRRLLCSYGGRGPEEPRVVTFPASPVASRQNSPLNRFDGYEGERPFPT

SMILES: CNCC(O)c1ccc(O)cc1 (stereo not drawn) [synephrine, 2-methylamino-1-(4-hydroxyphenyl)-ethanol]
- effect on blood pressure [1]: increase blood pressure
- lipid mobilization properties in vitro (adipose tissue): have lipid mobilization properties in vitro
- plasma free fatty acid level in vivo [2]: can increase plasma free fatty acid level in vivo
- adrenergic activity (in words) (β-adrenergic): both α- and β-adrenergic activity

SMILES: NCC(O)c1ccc(O)cc1 (stereo not drawn) [octopamine, 2-amino-1-(4-hydroxyphenyl)-ethanol]
- selective action on β3-adrenoceptors (β3-adrenoceptors): can selectively act on β3-adrenoceptors; also recorded: selective activation of β3-adrenoceptor
- rat adipocyte lipolysis (rat adipocyte): effective
- effect on human fat cells (lipolysis) (human fat cells): ineffective

SMILES: CCCCNCC(O)c1ccc(O)cc1 (stereo not drawn) [Bamethan, 2-butylamino-1-(4-hydroxyphenyl)-ethanol]
- lipid mobilization properties in vitro (adipose tissue): have lipid mobilization properties in vitro

SMILES: CC(C)NCC(O)c1ccc(O)cc1 (stereo not drawn) [isopropylnorsynephrine hydrochloride, 2-Isopropylamino-1-(4-hydroxyphenyl)-ethanol hydrochloride]
- lipolytic effect at low concentration versus synephrine hydrochloride (human adipocytes; 1μg/mL versus synephrine hydrochloride at 100 μg/mL): still far greater than that of synephrine hydrochloride
- maximal lipolytic response elicited (human adipocytes; FIG. 1): ~60%
- lipolytic property on human fat cells (in words) (human adipocytes; human adipocytes, FIG. 1, hydrochloride): strong lipolytic property; also recorded: superior than synephrine hydrochloride
- capacity to stimulate human adipocytes lipolysis compared to synephrine hydrochloride (human adipocytes; [3]): 2 times
- lipolytic potency relative to synephrine hydrochloride (human adipocytes; [3]): ~100 times

SMILES: CC(C)(Cc1ccccc1)NCC(O)c1ccc(O)cc1 (stereo not drawn) [phenyl-t-butylnorsynephrine, 2-(phenyl-t-butylamino)-1-(4-hydroxyphenyl)-ethanol]
- lipid mobilization properties in vitro (adipose tissue): have lipid mobilization properties in vitro

SMILES: CC(C)NCC(O)c1ccc(O)cc1 (stereo not drawn) [isopropylnorsynephrine, 2-isopropylamino-1-(4-hydroxyphenyl)-ethanol]
- lipid mobilization properties in vitro (adipose tissue): have lipid mobilization properties in vitro
- plasma free fatty acid level in vivo [2]: can increase plasma free fatty acid level in vivo
- adrenergic activity (in words) (β-adrenergic): pure β-adrenergic activity

SMILES: CC(C)(C)NCC(O)c1ccc(O)cc1 (stereo not drawn) [tert-butylnorsynephrine, 2-tert-butylamino-1-(4-hydroxyphenyl)-ethanol]
- lipid mobilization properties in vitro (adipose tissue): have lipid mobilization properties in vitro

SMILES: CCCNCC(O)c1ccc(O)cc1 (stereo not drawn) [propylnorsynephrine, 2-propylamino-1-(4-hydroxyphenyl)-ethanol]
- lipid mobilization properties in vitro (adipose tissue): have lipid mobilization properties in vitro

SMILES: CNCC(O)c1ccc(O)cc1 (stereo not drawn) [synephrine hydrochloride, 2-Methylamino-1-(4-hydroxyphenyl)-ethanol hydrochloride, reference compound]
- maximal lipolytic response elicited (human adipocytes; FIG. 1): ~30%

SMILES: CCNCC(O)c1ccc(O)cc1 (stereo not drawn) [ethylnorsynephrine, 2-ethylamino-1-(4-hydroxyphenyl)-ethanol]
- lipid mobilization properties in vitro (adipose tissue): have lipid mobilization properties in vitro
